Assay results: patent publication US11414377B2, “Modulator of metabotropic and ionotropic transmembrane receptors and use thereof” (IBD THERAPEUTICS LLC, priority 2018, dated 2022)

Experiments:
male balb/c mice = assay: Motility of the gastrointestinal tract in vivo (activated carbon transit); settings: intact 73.8 ± 3.7
Procedure: The effect of Compound I on the motility of the GIT was studied by a standard procedure (Li Y. Y., Li Y. N., Ni J. B., Chen C. J., Lv S., Chai S. Y., Wu R. H., Yüce B., Storr M. Involvement of cannabinoid-1 and cannabinoid-2 receptors in septic ileus//Neurogastroenterol Motil. 2010. V. 22. P. 350-388). The study was carried out on male balb/c mice, the individual weight of which deviates from the mean value within the sex of no more than ±20%. The animals were given the intragastric administration of a solution of activated carbon (50 mg/ml, in 10 ml/kg) and the rate (in minutes) of the movement of the activated carbon on the intestine of animals was evaluated. Compounds I was administered once intragastrically 1 hour prior to administration of activated carbon. As the comparative preparations, hyoscin butyl bromide (Buscopan) at a dose of 3 mg/kg, trimebutine (Trimedat) at a dose of 33 mg/kg, mebeverine (Duspatalin) at a dose of 30 mg/kg were used. The obtained data were checked using the Grubb's test for the presence of the largest or smallest abnormal observation (ejection) in the sample. Values determined “to be eliminated” in this test were not used for further assay. For all data, descriptive statistics was used: a mean value (M) and standard error of the mean value (m) were counted up. The normality of distribution of the values obtained in the course of the experiment was checked with the aid of the Kolmogorov-Smirnov test. In the case of normal distribution, Student's t-test (t-test) was used to evaluate the inter-group distinctions. In the case of the distribution that is other than the normal one for the comparison of several groups, the Kruskall-Wallis test (with Dann's post hoc test) was used. Distinctions were determined at 5% at a level of confidence.

female balb/c mice = assay: Oxazolone-induced inflammatory bowel disease model; format: in vivo; settings: 10 mg/kg, 1, 25 and 49 hours after oxazolone, scored at 72 hours, control 2.00 ± 0.21
Procedure: The study of the activity of Compound I on the oxazolone-induced inflammatory bowel disease model (ulcerative Colitis and Crohn's disease model) was carried out by means of a standard procedure (Heller F., Fuss I. J., Nieuwenhuis E. E., Blumberg R. S., Strober W. Oxazolone colitis, a Th2 colitis model resembling ulcerative colitis, is mediated by IL-13-producing NK-T cells//Immunity. 2002. P. 629-638).
The study was carried out on female balb/c mice. A 3.5 F catheter was introduced into the large intestine to a depth of 3-4 cm. Then, 150 μl of 1% oxazolone solution in 50% ethanol was slowly introduced into the colon lumen, the catheter was slowly removed and the mouse was kept in a vertical position (upside down) for 60 seconds to avoid the introduced solution flowing-out. Experimental animals were returned to the cages and the animal was kept in the warm. Compound I was administered intragastrically, three times: 1 hour, 25 hours and 49 hours after the rectal administration of oxazolone. 72 hours later after the rectal administration of oxazolone, the macroscopic assessment of intestinal wall damage is carried out with the help of score scale: 0 points—no lesions, 1 point—hyperemia, no ulcers, 2 points—hyperemia and thickening of the intestinal wall, no ulcers, 3 points—one ulcer without thickening of the intestine wall, 4 points—2 or more of the site of ulceration or inflammation, 5 points—2 or more severe sites of ulcerations and inflammation, or one site of ulceration/inflammation affecting >1 cm in length of the intestine, 6-10 points—the lesion affects >2 cm in length of the intestine, the score increases by 1 point per each 1 cm that is damaged.
For all data, descriptive statistics is applied: the arithmetic mean (M) and the standard error of the mean (m) are counted up. The normality of distribution of the values obtained in the course of the experiment was checked with the aid of the Shapiro-Wilk test. […] Distinctions were determined at 5% at a level of confidence.

SMILES: CCCC[N+]1(C)[C@@H]2C[C@@H](OC(=O)[C@H](CO)c3ccccc3)C[C@H]1[C@@H]1O[C@@H]12 (stereo partly shown) [Hyoscine butyl bromide, hyoscin butyl bromide, reference compound]
- The time of ejection of activated carbon (male balb/c mice; 3 mg/kg once intragastrically 1 hour prior to activated carbon): 87.6 ± 4.75 min

SMILES: C[C@]12C=CC(=O)C=C1CC[C@@H]1[C@@H]2[C@@H](O)C[C@@]2(C)[C@H]1CC[C@]2(O)C(=O)CO [Prednisolone, reference compound]
- The degree of colon wall damage (female balb/c mice): 1.40 ± 0.37 points

SMILES: CCC(COC(=O)c1cc(OC)c(OC)c(OC)c1)(c1ccccc1)N(C)C (stereo not shown) [Trimebutine, trimebutine, reference compound]
- The time of ejection of activated carbon (male balb/c mice; 33 mg/kg once intragastrically 1 hour prior to activated carbon): 110.8 ± 6.52 min

SMILES: CCN(CCCCOC(=O)c1ccc(OC)c(OC)c1)C(C)Cc1ccc(OC)cc1 (stereo not shown) [Mebeverine, mebeverine, reference compound]
- The time of ejection of activated carbon (male balb/c mice; 30 mg/kg once intragastrically 1 hour prior to activated carbon): 114.5 ± 12.22 min
